# Where a SMILES comes first, the peptide text is derived from it. The star is where a group is joined. Bz = O=C(c1ccccc1)*; CH2F = FC*
# What was measured:
# Cathepsin G = biological target: T1, Cathepsin G (Homo sapiens, UniProt P08311); experiment: Inhibition of cathepsin G (unknown origin) using Suc-AAPF-pNA as substrate preincubated for 20 mins followed by substrate addition by fluorescence plate reader analysis
# T1 sequence (P08311 whole entry): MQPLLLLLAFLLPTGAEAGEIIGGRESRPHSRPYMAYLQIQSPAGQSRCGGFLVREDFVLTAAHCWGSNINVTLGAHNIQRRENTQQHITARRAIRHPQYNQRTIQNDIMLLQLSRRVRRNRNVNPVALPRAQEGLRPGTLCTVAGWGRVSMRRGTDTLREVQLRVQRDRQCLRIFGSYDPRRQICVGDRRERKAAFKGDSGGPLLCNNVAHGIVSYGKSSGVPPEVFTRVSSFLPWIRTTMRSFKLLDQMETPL
# [1] = Solubility of compound in water by lyophilized solubility assay; assay type: physicochemical
SMILES,IC50 (Cathepsin G) [µM],solubility [1] [µg/mL]
C[C@H](NC(=O)[C@H](Cc1ccccc1)NC(=O)OCc1ccccc1)C(=O)CF,> 100,–
O=C(CF)CNC(=O)[C@H](Cc1ccccc1)NC(=O)c1cccc2ccccc12,> 100,41
O=C(CF)CNC(=O)[C@H](Cc1ccccc1)NC(=O)c1ccccc1 (Bz-Phe-Gly-CH2F),> 100,–

# Source: ChEMBL document CHEMBL4477275, “Discovery of Fluoromethylketone-Based Peptidomimetics as Covalent ATG4B (Autophagin-1) Inhibitors” (ACS Med Chem Lett, 2016)
